From BindingDB's records for PubMed 35440138 (University of Strathclyde, 2022) come the findings set out here.

Usually EC50 stands for the midpoint of the concentration-response curve.

The nature of test [1]: Inhibition of LPA-mediated ATX activation in human BJeH cells assessed as AKT phosphorylation level incubated for 30 mins by Western blot analysis. A general note: A western blot detects proteins with antibodies after separation by electrophoresis.
Test [2] in a line: Inhibition of LPA-mediated ATX activation in human BJeH cells assessed as ERK phosphorylation level incubated for 30 mins by Western blot analysis.

Take `C[C@H](CCC(=O)N1CCC(Oc2ccc([B-](F)(F)F)cc2)CC1)[C@H]1CC[C@H]2C3[C@@H](O)C[C@@H]4C[C@H](O)CC[C@]4(C)[C@H]3CC[C@]12C` (some centres not stated): the EC50 in test [1] and in test [2] was 100 nM each time.
